# Target: CDK2 (UniProt P24941)
# Experiment: Enzyme Assay
# Details: concentration not given here
row,Compound,inhibition [%]
1,Cc1csc(NC(=O)C2=COc3ccc(Cl)cc3C2)c1C(N)=O,100
2,NC(=O)c1c(NC(=O)c2cc[nH]c2)sc2c1CCCC2,100
3,CC(=O)NC(=O)C1CCCN1c1sc(-c2ccccc2)cc1C(N)=O (stereo unspecified),100
4,COc1ccc(CC(=O)Nc2scc(C)c2C(N)=O)c(OC)c1,100
5,NC(=O)c1cc(Cc2ccccc2)sc1-n1cnc2ncnc(C(=O)O)c21,100
6,NC(=O)c1cc(Cc2ccccc2)sc1NC(=O)c1n[nH]c2ccccc12,100
7,COc1cccc(C(=O)Nc2sc(-c3ccccc3)cc2C(N)=O)c1,100
8,NC(=O)c1cc(-c2ccccc2)sc1NC(=O)CCN1CCCCC1,100
9,COc1ccc2cc(C(=O)Nc3scc(C)c3C(N)=O)[nH]c2c1,100
10,NC(=O)c1c(NC(=O)C2(C(N)=O)CC2)sc2c1CCCC2,100
11,NC(=O)c1cc(-c2ccccc2)sc1NC(=O)Cc1ccc(F)cc1,100
12,CN1CCc2c(sc(NC(=O)c3cccc(I)c3)c2C(N)=O)C1,100
13,COc1cccc(/C=C\C(=O)Nc2scc(C)c2C(N)=O)c1OC,100
14,Cc1cc(C(=O)Nc2sc3c(c2C(N)=O)CCCC3)no1,100
15,Cc1sc(NC(=O)/C=C\c2ccc(N(C)C)cc2)c(C(N)=O)c1C,100
16,CC(C)C(C(=O)O)N(C(N)=O)c1sc(Cc2ccccc2)cc1C(N)=O (stereo unspecified),100
17,Cc1csc(NC(=O)c2nn(-c3ccccc3)nc2C)c1C(N)=O,100
18,NC(=O)c1c(NC(=O)c2ccncc2)sc2c1CCCC2,100
19,CN1CCc2c(sc(NC(=O)Cc3ccc(I)cc3)c2C(N)=O)C1,100
20,COc1cc(/C=C\C(=O)Nc2scc(C)c2C(N)=O)cc(OC)c1,100
21,CC(=O)Nc1sc2c(c1C(N)=O)CCCC2,100
22,Cc1sc(NC(=O)CCCC(=O)c2ccccc2)c(C(N)=O)c1C,100
23,Cc1sc(NC(=O)C2(c3ccccc3)CCCC2)c(C(N)=O)c1C,100

row,Compound,inhibition [%]
1,CC(=O)c1ccc(C(=O)Nc2sc(Cc3ccccc3)cc2C(N)=O)cc1,100
2,C=CCN(C(C)=O)C(=O)CNc1sc(-c2ccccc2)cc1C(N)=O,100
3,NC(=O)c1cc(-c2ccccc2)sc1NC(=O)C1(c2ccccc2)CC1,100
4,CCC(NC(=O)CCl)C(=O)Nc1sc(C)c(C)c1C(N)=O (stereo unspecified),100
5,NC(=O)c1cc(Cc2ccccc2)sc1NC(=O)/C=C\c1ccc(O)cc1,100
6,Cc1sc(NC(=O)Cc2cn(C)c3ccccc23)c(C(N)=O)c1C,100
7,CN1CCc2c(sc(NC(=O)Cc3c[nH]c4ccc(F)cc34)c2C(N)=O)C1,100
8,NC(=O)c1ccccc1C(=O)Nc1sc(Cc2ccccc2)cc1C(N)=O,100
9,CN(C)c1ccc(C(=O)Nc2sc(Cc3ccccc3)cc2C(N)=O)cc1,100
10,Cc1csc(NC(=O)Cc2c(C)[nH]c3ccccc23)c1C(N)=O,100
11,Cc1csc(NC(=O)CCNC(=O)c2ccccc2)c1C(N)=O,100
12,COc1ccc(C(=O)Nc2sc(-c3ccccc3)cc2C(N)=O)cc1,100
13,NC(=O)c1cc(-c2ccccc2)sc1NC(=O)CC1CCCCCC1,100
14,CC#CC(=O)Nc1sc2c(c1C(N)=O)CCCC2,100
15,CC(=O)NC(Cc1c[nH]cn1)C(=O)Nc1sc2c(c1C(N)=O)CCN(C)C2 (stereo unspecified),100
16,NC(=O)c1c(NC(=O)c2ccsc2)sc2c1CCCC2,100
17,NC(=O)c1c(NC(=O)c2ccccc2)sc2c1CCCC2,100
18,CC1(C)CC(=O)C=C(C(=O)Nc2sc(Cc3ccccc3)cc2C(N)=O)O1,100
19,CN1CCc2c(sc(NC(=O)CCS(=O)(=O)c3ccccc3)c2C(N)=O)C1,100
20,NC(=O)c1cc(Cc2ccccc2)sc1NC(=O)/C(F)=C/c1ccccc1,100
21,NC(=O)c1c(N2C(=O)CCC2C(N)=O)sc2c1CCCC2 (stereo unspecified),100
22,Cc1sc(NC(=O)/C=C/CNC2=CCC(=O)C=C2)c(C(N)=O)c1C,100

# Results, then the compound that gave them:
row,inhibition [%],Compound
1,100,CC(=O)Nc1ccc(C(=O)Nc2sc(C(C)c3ccccc3)cc2C(N)=O)cc1 (stereo unspecified)
2,100,Cc1cccc(C)c1C(=O)Nc1sc(C(C)C)cc1C(N)=O
3,100,NC(=O)c1cc(-c2ccccc2)sc1NC(=O)c1ccccc1Cl
4,100,CC(C)c1cc(C(N)=O)c(NC(=O)c2ccc(O)cc2)s1
5,100,CC(c1ccccc1)c1cc(C(N)=O)c(NC(=O)c2cn(C)c3ccccc23)s1 (stereo unspecified)
6,100,Cc1cc(C)cc(CC(=O)Nc2sc(Cc3ccccc3)cc2C(N)=O)c1
7,100,CC(C)c1cc(C(N)=O)c(NC(=O)/C=C/c2cccnc2)s1
8,100,COc1ccc(C(=O)Nc2scc(C)c2C(N)=O)c(OC)c1OC
9,100,Cc1ccc(C(=O)Nc2sc(C(C)C)cc2C(N)=O)c(C)c1
10,100,CC(c1ccccc1)c1cc(C(N)=O)c(NC(=O)Cc2cn(C)cn2)s1 (stereo unspecified)
11,100,COc1ccccc1C(=O)Nc1sc(-c2ccccc2)cc1C(N)=O
12,100,CC(c1ccccc1)c1cc(C(N)=O)c(NC(=O)C2CC(=O)c3ccccc32)s1 (stereo unspecified)
13,100,Cc1sc(NC(=O)c2c(Cl)cccc2Cl)c(C(N)=O)c1C
14,100,CC(c1ccccc1)c1cc(C(N)=O)c(NC(=O)c2cc3ccccc3n2C)s1 (stereo unspecified)
15,100,Cc1ccc(CC(=O)Nc2sc(C(C)C)cc2C(N)=O)cc1
16,100,Cc1sc(NC(=O)c2ccc(OC(C)C)cc2)c(C(N)=O)c1C
17,100,Cc1cccc(C(=O)Nc2sc3c(c2C(N)=O)CCCC3)c1
18,100,CC(c1ccccc1)c1cc(C(N)=O)c(NC(=O)c2cnc3ccccc3n2)s1 (stereo unspecified)

row,inhibition [%],Compound
1,100,CC(C)c1cc(C(N)=O)c(NC(=O)C2CNC(=O)N2)s1 (stereo unspecified)
2,100,CC(c1ccccc1)c1cc(C(N)=O)c(NC(=O)c2ccc3ccccc3n2)s1 (stereo unspecified)
3,100,Cc1sc(NC(=O)c2cc(Cl)cc(Cl)c2)c(C(N)=O)c1C
4,100,Cc1csc(NC(=O)c2ccccc2S(C)(=O)=O)c1C(N)=O
5,100,Cc1cc(C)cc(C(=O)Nc2sc(C(C)C)cc2C(N)=O)c1
6,100,Cc1sc(NC(=O)c2cc3cc(O)ccc3[nH]2)c(C(N)=O)c1C
7,100,CC(c1ccccc1)c1cc(C(N)=O)c(NC(=O)c2cccc(Cl)c2O)s1 (stereo unspecified)
8,100,CC(c1ccccc1)c1cc(C(N)=O)c(NC(=O)c2cc3ccccc3s2)s1 (stereo unspecified)
9,100,CC(c1ccccc1)c1cc(C(N)=O)c(NC(=O)C(c2ccccc2)C(C)C)s1 (stereo unspecified)
10,100,Cc1sc(NC(=O)c2cc(Cl)ccc2Cl)c(C(N)=O)c1C
11,100,Cc1ccc(O)c(C(=O)Nc2sc(-c3ccccc3)cc2C(N)=O)c1
12,100,Cc1ccc(C)c(C(=O)Nc2sc(C(C)C)cc2C(N)=O)c1
13,100,CCCCC(C)(C)C(=O)Nc1sc(C(C)C)cc1C(N)=O
14,100,COc1cc(OC)cc(C(=O)Nc2sc(C)c(C)c2C(N)=O)c1
15,100,COc1ccc(C(=O)Nc2sc(Cc3ccccc3)cc2C(N)=O)c(O)c1
16,100,CC(C)c1cc(C(N)=O)c(NC(=O)/C=C/c2c[nH]cn2)s1
17,100,CC(=O)NCCCCCC(=O)Nc1sc(C(C)c2ccccc2)cc1C(N)=O (stereo unspecified)
18,100,CC(c1ccccc1)c1cc(C(N)=O)c(NC(=O)c2cc(Cl)ccc2O)s1 (stereo unspecified)
